The source of these data is patent US8901337B2, “Metal complexes having dual histone deacetylase inhibitory and DNA-binding activity” (Royal College of Surgeons in Ireland, priority 2009, dated 2014).

For one assay, the target named is T1, HDAC1 (Homo sapiens, UniProt Q13547).
T1 construct: purchased Cayman Chemicals, Ann Arbor, USA
Briefly: Cayman HDAC1 Inhibitor Screening Assay Kit (fluorescence). It is filed as biochemical. How it is done: The assay provides a fast two-step fluorescence-based method for measuring HDAC activity. Briefly, in the first step an acetylated lysine residue was incubated with HDAC1 and potential inhibitors. Deacetylation sensitises the substrate so that treatment with the HDAC developer in the second step releases a fluorescent product. The fluorescent reaction product was analysed using a plate reader with an excitation wavelengths of 350 nm and emission wavelengths of 460 nm.

The test system of assay [1] is closed circular supercoiled pUC19 plasmid DNA. Briefly: DNA unwinding, agarose gel mobility shift assay. It counts as binding. Conditions: 37° C., 48 h, range of concentrations. How it is done:
Platinum compounds, such as cisplatin, that unwind the DNA duplex reduces the number of supercoils in closed circular DNA so that their number decreases. This decrease upon binding of unwinding agents causes a decrease in the rate of migration of DNA through agarose gel. Unwinding of closed circular supercoiled pUC19 plasmid DNA incubated with cis-[Pt^II(NH3)2(malSAHA−2H)] was assayed by an agarose gel mobility shift assay. Samples of plasmid DNA were incubated with platinum complexes at 37° C. in the dark for 48 h. All samples were subjected to electrophoresis on 1% native agarose gel running at 25° C. with TAE buffer and the voltage set at 25 V. The gels were then stained with EtBr, followed by photography with transilluminator.^16

For a further assay, the system named is A2780 cisR cells. Briefly: Inhibition of DNA synthesis, BrdU incorporation assay, A2780 cisR. The note with it: 72 hr, FIG. 19. It counts as cell-based, human. The method, then: (§1) DNA synthesis was determined using 5-bromo-2-deoxyuridine (BrdU) colourimetric incorporation assay.^18 A2780 P and A2780 cisR cells were seeded into 96 well plates and allowed to adhere overnight. All test agents were added and incubated for 72 hr prior to the addition of BrdU (10 μM per well). Plates were then incubated at 37° C. for 4 h and incorporation was quantified by ELISA (Calbiochem).
For orientation: Dividing cells build labelled thymidine or BrdU into new DNA.

The subject of assay [2] is caspase-3 activation in A2780 cisR cells. Briefly: Caspase-3 colourimetric assay, A2780 cisR. Conditions: 72 hr, IC50 and IC75, FIG. 21. It is filed as cell-based, human. The method, then:
(§2) Both floating and attached cells were collected by centrifugation. Cells, at a density of 1.5×10^6 cells/ml were washed with PBS and then re-suspended in chilled cell lysis buffer (supplied in the Caspase-3 colourimetric assay kit, Calbiochem, UK). Cells were incubated on ice for 10 min and then centrifuged for 1 min at 10,000 g. The cytosolic fraction (supernatant) was collected into a fresh tube and 50 μl (2 mg/ml) of each protein sample was transferred to a 96 well plate and diluted with lysis buffer. A 50 μl aliquot of X2 reaction buffer, containing 10 mM DTT was added, followed by 5 μl of 4 mM DEVD-pNA substrate to give a final concentration of 200 μM. The plate was then incubated at 37° C. for 1-2 h. OD was determined at 400 nm using an Anthos HT-II microtitreplate reader. The fold increase in caspase-3 and -9 activities was determined by comparing results to that obtained with un-induced control.

Assay [3] relates to caspase-9 activation in A2780 P cells. Briefly: Caspase-9 assay, A2780 P. It is filed as cell-based, human. The note with it: 72 hr, IC50 and IC75, FIG. 22. How it is done: as §2
The next assay has as its system A2780 P cells. Briefly: Inhibition of DNA synthesis, BrdU incorporation assay, A2780 P. The note with it: 72 hr, FIG. 18. It counts as cell-based, human. How it is done: as §1
The test system of assay [4] is caspase-3 activation in A2780 P cells. In words: Caspase-3 colourimetric assay, A2780 P. It counts as cell-based, human. The note with it: 72 hr, IC50 and IC75, FIG. 20. The method, then: as §2
Assay [5] concerns caspase-9 activation in A2780 cisR cells. Briefly: Caspase-9 assay, A2780 cisR. It is filed as cell-based, human. The note with it: 72 hr, IC50 and IC75, FIG. 23. The method, then: as §2

T1 sequence (Q13547 whole entry): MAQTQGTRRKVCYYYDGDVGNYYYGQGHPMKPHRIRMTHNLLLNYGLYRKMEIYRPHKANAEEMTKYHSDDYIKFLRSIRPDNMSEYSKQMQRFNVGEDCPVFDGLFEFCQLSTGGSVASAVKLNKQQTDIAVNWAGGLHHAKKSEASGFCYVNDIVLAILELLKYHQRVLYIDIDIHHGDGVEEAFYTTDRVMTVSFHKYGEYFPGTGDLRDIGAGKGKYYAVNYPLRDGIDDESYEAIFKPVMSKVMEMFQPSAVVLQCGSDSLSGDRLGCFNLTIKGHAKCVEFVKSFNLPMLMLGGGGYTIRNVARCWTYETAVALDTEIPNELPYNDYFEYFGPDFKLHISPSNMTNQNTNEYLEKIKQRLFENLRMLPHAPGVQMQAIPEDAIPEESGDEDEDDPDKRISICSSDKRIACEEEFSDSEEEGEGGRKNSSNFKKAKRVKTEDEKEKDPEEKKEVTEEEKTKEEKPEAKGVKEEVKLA

Regarding `[NH2][Pt]1([NH2])[O]C(=O)C(Cc2ccc(NC(=O)CCCCCCC(=O)NO)cc2)C(=O)[O]1` [cis-[Pt(NH3)2(malSAHA−2H)], cis-[Pt(NH3)2(malSAHA−2H)].3H2O], the “inhibition of HDAC1 (in words)” value against HDAC1 was “inhibit HDAC1”. Moreover, the IC50 on HDAC1 (read-out: IC50 against HDAC I at 200 μM, at 200 μM) was 1140 nM. In assay [1], the “unwinding of negatively supercoiled pUC19 plasmid DNA (DNA binding)” value is reported as “can induce unwinding in negatively supercoiled pUC19 plasmid DNA”.
On to `[NH2][Pt]1([NH2])[O]C(=O)C(Cc2ccc(NS(=O)(=O)c3ccc(/C=C/C(=O)NO)cc3)cc2)C(=O)[O]1` [cis-[Pt(NH3)2(malBel−2H)], cis-[Pt(NH3)2(malBel−2H)].1.5H2O], for which the “effect on DNA synthesis, BrdU incorporation” value in the assay on A2780 cisR cells and in the assay with A2780 P cells was “dose-dependant decrease in DNA synthesis” in each case. The caspase-3 activity result was “an increase in both Caspase-3 and -9 activities” in assay [2]; “an increase in both Caspase-3 and -9 activities” in assay [4]. The caspase-9 activity entry in assay [3] is “an increase in both Caspase-3 and -9 activities”; in assay [5], “an increase in both Caspase-3 and -9 activities”.

As usually defined, the IC50 is the point on the concentration scale where inhibition reaches its midpoint.
